From patent publication EP2229935A1, “Peptide derivatives or pharmaceutically acceptable salts thereof, method for producing the same, use of said derivatives and pharmaceutical composition” (Nebolsin, Vladimir Evgenievich, priority 1997, dated 1999)
Marks after values point to notes of the source that are not given here.

What was measured:
mongrel male mice [1] = assay: Passive cutaneous anaphylaxis reaction; type: in vivo; details: PCA, oral 3 days, 2 µg/kg
Procedure: Experiments were carried out on mongrel male mice with initial body mass 22-24 g. Each group included 10 animals. Sensibilization of animals was accomplished by intradermal injection of 20-30 µl of the serum of mice obtained from preliminaryly immunized animals comprising reagent antibodies against chicken ovalbumin (OVA). […] In 48 hours after sensibilzation an anaphylaxis-provoking OVA dose (1 mg and 0,2 ml Evans blue in 0.2 ml normal saline) were intravenously injected to mice. Passive cutaneous anaphylaxis reaction intensity (PCA) was determined in 30 minutes by the size (area) of a blue spot on the internal skin surface in the site of reagent anibodies' administration. Spot size was measured in two mutually perpendicular directions and the result was expressed in mm^2.

mongrel guinea-pigs = assay: Food anaphylaxis (active anaphylactic shock) in OVA-sensitized guinea pigs; details: oral 3 days before provoking anaphylaxis, 1000 µg/kg
Male guinea pigs = assay: Antigen-induced bronchospasm in actively sensitized guinea pigs; type: in vivo; details: for Bronchospasm (percent of the maximum value): sensitized guinea pigs
Procedure: Antiasthmatic effect of the test compounds was studied using an antigen-induced bronchospasm model in actively sensitized guinea pigs according to the Andersson method [Andersson P. Antigen induced bronchial anaphylaxis in actively sensitized guinea pig. Allergy (1980), Vol. 35, pp. 65-71].
Male guinea pigs were sensitized with intramuscular injection of 0.5 ml suspension comprising 20 micrograms ovalbumin (OVA, manufactured by the Sigma company [grade III]) and 100 mg Al(OH)3 per one animal. Anaphylaxis-provoking dose 150-200 µg/kg OVA in 0.1 ml normal saline was intravenously (v. jugularis) injected on day 26 after sensibilization. Bronchospasm induction and measuring external respiration parameters were carried out according to the method described in Yu-Hong L., Barnes P., Rogers D. Inhibition of neurogenic plasma exudation and bronchoconstriction by a K+ channel activator, BRL 38227, in guinea pig airways in vivo. Europ. J. Pharmacol. (?), Vol. 239, pp.257-259]. Measurement of respiration parameters was performed using a transducer (Ugo Basel, model 7020), connected with a cannula and a recorder (Millichrome), recording breathing amplitude. […] Efficacy of compounds was determined by change in bronchospasm value.
Inthal was used as a reference drug that was administered to animals at a dose 5 µg/kg according to the same dosage regimen as the test substances were administered. The control group of animals received equivalent amount of normal saline.
Groups of animals: group 1 - control; group 2 - animals given Inthal; group 3 - animals given oral compound XLIV; group IV - animals given oral compound III; group 5 - animals given intratracheal compound III; group 6 - animals given compound XLIX, group 7 - animals given compound XXXI, group 8 - animals given compound XLVI; group 9 - animals given compound VI, group 10 - animals given compound XLVIII.

P-450 and B5 cytochromes = assay: Hepatic content of P-450 and B5 cytochromes (microsomal liver fraction); type: in vivo, guinea pigs; details: guinea pig liver microsomes; administered three times 72, 48 and 24 hours before
Procedure: Change in hepatic monooxygenase system was studied on mongrel male guinea pigs with initial mass 250-300 g; each group included 12 animals. […]. The content of P-450 and […] cytochromes was measured according to the published method [Omura T., Scato R. The monooxide binding pigment of liver microsomes. 11. Solubilization, purification and properties. J. Chem. (1964), Vol. 239, pp. 2379-2385] in microsomal liver fraction, isolated using differential centrifugation method [Ahokas J., Pelkonen O., Karkin N. Charcaterisation of BP-hydroxylase of Trout-liver. Cancer Res. (1977), Vol. 37, pp. 3737-3743]. The priority method {Izotov M.V., Scherbakov V.M., Devichensky V.M. et al. The method of determining the content of P-450 cytochrome isoenzymes in liver microsomes. The inventor's certificate No 1,488,738. B.I. (1989), No 3.-6.06.09, ICI, 01. - No 33/15, No 33/48]. Microsomal protein content was determined using the modified Lowry method [Hartree E. Determination of protein: a modification of the Lowry method, that gives a linear photometric responces. Ann. Biochem. (1972), Vol. 48, pp. 422-427].

[C^14]-arachidonic acid = Metabolism of [C^14]-arachidonic acid in pulmonary tissue homogenate of treated mice; type: in vivo, CBA male mice; details: CBA mice lung homogenate; 80 µg/kg for three days
Procedure: Studies were carried out on CBA male mice fed a standard vivarium ration. […] Then animals were sacrified, their lungs were taken out, frozen in liquid nitrogen, homogenized in a glass homogenizer manufactured by the Wheaton company (U.S.A.) at +4°C in 10 volumes 0.05 M Tris-HCl buffer. […] Densitometry of the autoradiochromatograms obtained on the X-ray films X-Omat AR (Kodak, U.S.A.) and HS 11 (ORWO, Germany) were performed on the KS 3 densiscan (Kipp and Zonnen, Holland). Quantative analysis of individual eucosanoids was carried out using radiometry of the fractions obtained with high performance liquid chromatography (the Gilson company HPLC-system, France; the Du Pont company ZORBAX C8 column, U.S.A.) and with elution of spots on TLC-plates.

[2] = test system: hepatic P-450 cytochrome system; assay: Hexenal sleep duration in mice; type: in vivo; details: CBF1 mice, oral 3 days, control 25.91 ± 1.57
Outline: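 Male mice (several inbred/hybrid lines, 18-20 g, n=10) and mongrel male guinea pigs (250-300 g, n=24) given compounds orally in drinking water for three days at 50 and 500 µg/kg. Hexenal given 24 h after last dose ([…]); sleep duration recorded in minutes.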

mongrel male mice [3] = assay: Delayed hypersensitivity induced by picryl chloride (TCB), local ointment; type: in vivo; details: mice, TCB
Procedure: Effect study of the compounds on the delayed type hypersensitivity reaction induced in mice by 2.4.6-trichlorobenzol (TCB) was carried out according to the method of Tarayre et al. [Tarayre J.P., Barbara M., Aliaga M., Tisne-Versilles. Comparative actions of immunosuppressants, glucocorticoids and non-steroidal antiinflammatory drugs on various models of delayed hypersensitivity and on a non-immune inflammation in mice. Arzneim.-Forsch. Drug Res. (1990), Vol. 40, pip.1125-1131].
Studies were conducted on mongrel male mice with initial body mass 30-35 g. Each group included 10 animals. Mice were sensitized with 0.1 ml 3% TCB solution in acetone application on a shaved abdominal area. In 7 days, the anaphylaxis-provoking TCB dose (0.025 ml of 3% solution) was applied on both surfaces of the right ear. In 30 minutes 0.05 ml of the test ointment were rubbed into the same surfaces. 24 hours after edema induction, mice were sacrified, ears were cut off and weighed. Allergic reaction intensity was assessed by change in weight in grams of the right ear (the test one) in relation to the left ear (the control ear).
Allergic reaction inhibition expressed in percent was calculated according to the formula: 100-[(R-L(exper.))/(L):(R-L(control))/(L)x100](%) [formula] where R - the right ear weight, L - the left ear weight.
The test compounds were applied on the ear in the form of 1% and 5% ointment the base of which were 10% methylcellulose solution and propylene glycol at 1:1 ratio.
Groups of animals: • Group 1 - control, ointment base without active substance was applied on the ear of animals. • Group 2 - ointment base comprising 1% compound III was applied on the ear of animals. • Group 3 - ointment base comprising 1% compound XVII was applied on the ear of animals. • Group 4 - ointment base comprising 5% compound XLVIII was applied on the ear of animals.

white mongrel male rats = assay: Paw edema induced by Freund's complete adjuvant; type: in vivo; details: rats, FCA edema
Procedure: Experiment was carried out on white mongrel male rats weghing 280-300 g. The model of paw edema induced by Freund's complete adjuvant (FCA), was reproduced according to the method of Ezamuzie and Umezurike [Ezamuzie Ch., Umezurike C.C. Effect of histamine H2-receptor antagonists on acute inflammatory of the rat paw oedema. J. Pharmacol. (1989), Vol. 41, pp. 261-265]. Paw volume measurement was done using a plethysmograph (Ugo Basile). Inhibition of inflammatory reaction expressed in percent, as calculated according to the formula: 100-[(R-L(exper.))/(L):(R-L(control))/(L)x100](%) [formula] where R - the right paw volume, L - the left paw volume.
Each group included 10 animals.
Group of animals: • Group 1 - control, animals were administered 0.5 ml of 1% starch solution. • Group 2 - animals were administered the compound XLVIII. • Group 3 - animals were administered the compound III. • Group 4 - animals were administered Naproxene.

[4] = test system: Strain Aichi of type A human influenza virus; type: in vivo; details: 50 µg/kg orally
[5] = 50 µg/kg per os, 72, 48 and 18 hours prior to bronchospasm induction
[6] = intragastral four times 50 µg/kg

## CCOC(=O)N1CCC(=C2c3ccc(Cl)cc3CCc3cccnc32)CC1 [Claritine, reference compound]
Mongrel male mice [1]
  Percent of the reaction inhibition: 92.8%
  Reaction intensity, mm^2: 6.4 ± 2.3**^2 mm^2
Mongrel guinea-pigs
  Anaphylactic index: 2.03
  Lethality in percent: 25.0%
  Seizures in percent: 53.3%

## O=C([O-])c1cc(=O)c2c(OCC(O)COc3cccc4oc(C(=O)[O-])cc(=O)c34)cccc2o1.[Na+].[Na+] [Inthal, reference compound]
Male guinea pigs; as compared with the control values
  decrease in bronchospasm value: ~50%
Male guinea pigs; 5 mg/kg, 72, 48 and 18 hours prior to bronchospasm induction
  Bronchospasm (percent of the maximum value): 40.7 3.4* percent of the maximum value

## CCC1(c2ccccc2)C(=O)NC(=O)NC1=O [Phenobarbital, reference compound]
P-450 and B5 cytochromes
  B5 /P-450: 0.81
  B5 cytochrome nM/mg of protein: 1.21 ± 0.10 nM/mg of protein
  P-450B cytochromes nM/mg of protein: 0.76 ± 0.08 nM/mg of protein
  P-450B/p-450L: 1.02
  P-450 cytochrome nM/mg of protein: 1.50 ± 0.09 nM/mg of protein
[C^14]-arachidonic acid
  5-HETE+HHT, percent of AA conversion: 10.5 ± 0.26% of AA conversion
  6-keto-PGF1α, percent of AA conversion: 4.12 ± 0.12% of AA conversion
  12-, 15-HETE, percent of AA conversion: 27.1 ± 0.11% of AA conversion
  PGE2, percent of AA conversion: 3.82 ± 0.14% of AA conversion
  PGF2α, percent of AA conversion: 7.91 ± 0.08% of AA conversion
  Phospholipids, percent of AA conversion: 8.18 ± 0.21% of AA conversion
  TXB2, percent of AA conversion: 6.21 ± 0.18% of AA conversion
  Unmetabolized AA, percent of AA conversion: 14.5 ± 0.28% of AA conversion

## NC(CCC(=O)NCCc1c[nH]c2ccc(O)cc12)C(=O)O [compound XLIX, γ -L-glutamylserotonine]
Male guinea pigs; [5]
  Bronchospasm (percent of the maximum value): 33.0 9.4* percent of the maximum value
[2]; 50 µg/kg
  Hexenal sleep duration (minutes): 19.68 ± 2.04** minutes

## N[C@@H](CCC(=O)NCCc1c[nH]c2ccccc12)C(=O)O [compound XLVIII, γ -L-glutamyltryptamine]
Male guinea pigs; [5]
  Bronchospasm (percent of the maximum value): 22.0 3.4* percent of the maximum value
Mongrel male mice [3]; 5% ointment
  Reaction inhibition (%): 54%
  weight increment: 3.7 ± 0.81 g
Mongrel male mice [3]; 5% ointment on right ear 30 minutes after challenge, 24 hours
  Weight of years (g) Right: 17.9 ± 0.94 g
Mongrel male mice [3]; left (control) ear of animals given 5% ointment
  Weight of years (g) left: 14.2 ± 0.98 g
White mongrel male rats; [6]
  Inflammation inhibition (%): 19%
  Volume increment: 0.65 ± 0.04
  Volume of paws (conditional units) left: 1.30 ± 0.62 conditional units
White mongrel male rats; intragastral four times 50 µg/kg 72, 48, 24 and 1 hour before FCA
  Volume of paws (conditional units) Right: 1.95 ± 0.48 conditional units
[2]; 50 µg/kg
  Hexenal sleep duration (minutes): 16.27 ± 1.26** minutes
[4]; series with control - 1 (5.76), 3 days before and 10 days following infection
  MLT, days: 9.58*^1 days
[4]; series with control - 1 (16.7)
  Survival rate in percent: 34.5*^1%
[4]; series with control - 1
  Protection degree in percent: 17.8%

## CCCCCC(=O)NCCc1c[nH]c2ccccc12 [compound XXXI, N-HEXANOYLTRYPTAMINE]
Male guinea pigs; [5]
  Bronchospasm (percent of the maximum value): 39.3 7.6* percent of the maximum value
[2]; 50 µg/kg
  Hexenal sleep duration (minutes): 12.59 ± 0.88*** minutes
[2]; 500 µg/kg
  Hexenal sleep duration (minutes): 12.61 ± 1.45*** minutes
